Test results published in patent US20220257604A1, “COMPOSITIONS AND METHODS FOR […] INFECTIONS BY REGULATING GLUCOSYLCERAMIDES” (priority 2019, published 2022).

Tests used:
A549 cells [1] = type: cell-based, human; details: 40 minutes at 37° C., compared with GBA KO cells
A549 cells [2] = type: cell-based, human; details: WT A549 cells pretreated with nocodazole; EGF-555 100 ng/mL; 40 minutes at 37° C.; compared with GBA KO cells

## COC(=O)Nc1nc2ccc(C(=O)c3cccs3)cc2[nH]1 [nocodazole]
A549 cells [1]
  colocalization of influenza with Lamp1 (Manders coefficient): not as strongly as in WT cells treated with nocodazole
A549 cells [2]
  colocalization of EGF with Lamp1 (Manders coefficient): not as severe as seen in WT cells treated with nocodazole
